{
  "source": "patent US4863902A",
  "about": "“Treatment of cancer” (Wakunaga Seiyaku Kabushiki Kaisha, priority 1985, dated 1989)",
  "key": {"[1]": {"tested_on": "Colon adenocarcinoma 26 (mouse colon adenocarcinoma)", "experiment": "Tumor weight of transplanted Colon adenocarcinoma 26 in BALB/c mice", "format": "in vivo", "details": "Table 5, 5-FU 150 mg/Kg, hEGF-II 100 μg/Kg subcutaneous, average ± standard error of 6-12 mice", "experimental": "After BALB/c mice were preliminarily fed in a thermostat (23°±0.5° C.), humidistat (60±5%) room for 1 week, those which appear to be healthy weighing 18-20 g were provided for the present experiment in 6-12 mice per 1 group.\n(§1) Colon adenocarcinoma 26 (mouse colon adenocarcinoma) was minced into pieces and about 0.1 to 0.2 ml thereof was transplanted subcutaneously on the right side of mouse abdomen by a cell transplanting needle (trocker). Six days after transplantation, the size of tumor, namely longer diameter (a mm) and shorter diameter (b mm) of tumor were measured and the tumor weight was calculated according to the formula shown below [Instruction 14 (NCI) 1980].\n(§2) Tumor weight (mg)=ab^2 /2\nBefore carrying out experiments, tumor weights were measured immediately before administration of the compounds and the mice were grouped into 3 groups by use of random numbers so that there may be no difference in average value of the tumor weights on initiation of experiments between the respective groups to make even the average values of tumor weights of the respective groups, and thereafter the compounds were administered to the respective groups.\nIn this FIGURE, the axis of abscissa indicates the experimental days with the day of compound administration being the day 1, and the axis of ordinate indicates tumor cell growth ratio which is the ratio of the tumor weight after elapse of the respective days relative to the tumor weight on the day 1 as being 100%."}, "[2]": {"tested_on": "Colon adenocarcinoma 38 (mouse colon adenocarcinoma)", "experiment": "Tumor weight of transplanted Colon adenocarcinoma 38 in C57BL/6 mice", "format": "in vivo", "details": "for Tumor weight (day 1 = 100): 5-FU 150 mg/Kg", "experimental": "as §1, with “38” for “26”, “Eleven” for “Six”\nas §2\nIn the Table, days indicate the experimental days with the day of compound administration being as the day 1, and the tumor weight immediately before administration of compound of day 1 is made 100. The respective values show the average value ± standard error of case numbers of 10 to 20, in the Table, the marks of (*), * and *** indicate the statistical significance difference of the combined administration group relative to the 5-FU single administration group (the definition of P is as defined above)."}, "[3]": {"tested_on": "P388/5-FU (mouse leukemia resistant to 5-FU)", "experiment": "Tumor weight of solid tumor of 5-FU resistant mouse leukemia in CDF1 mice", "format": "in vivo", "details": "5-FU 150 mg/Kg", "from_the_text": "CDF1 strain male mice were employed. The feeding conditions, etc., were the same as in Experimental Example 1.\nOf P388 (mouse leukemia), the strain having chemical resistance to 5-FU (P388/5-FU) was previously grown in the abdomen of CDF1 mouse. Eight days after transplantation into the abdomen, ascites (containing tumor cells) were collected, diluted with a liquid medium and transplanted subcutaneously at the axilla of mouse in 3×10^6 cells per mouse. Eight days after transplantation, the size of tumor was measured according to the same method as in Example 1 (Colon 26) and the tumor weight was calculated.\nThe grouping operation of mouse on initiation of experiments was conducted in the same manner as in Experimental Example 1. As for administration of compounds, the same procedure as in Experimental Example 1 was used. However, the administration was effected twice on the day 1 and the day 3."}, "[4]": {"tested_on": "mouse ovarian tumor M5076", "experiment": "Tumor weight of solid tumor of mouse ovarian tumor in BDF1 mice", "format": "in vivo", "details": "Table 10, 5-FU 150 mg/Kg, hEGF, [Leu^21 ]-hEGF or hEGF-II 100 μg/Kg subcutaneous, average ± standard error", "experimental": "BDF1 male mice were employed. The feeding conditions were the same as in Experimental Example 1.\nMouse ovarian tumor M5076 was transplanted subcutaneously at the axialla of mouse in 1-2×10^6 cells per mouse. 12 days after transplantation, the size of tumor was measured according to the same method as in Experimental Example 1 (Colon 26) and the tumor weight was calculated.\nThe grouping operation on initiation of Experiments was conducted in the same manner as in Experimental Example 1. The compounds were administered in the same manner as in Experimental Example 9.\nThe experiment was carried out in the samme manner as in Experimental Examples 1, 7 and as in Experimental Example 17 for others."}, "[5]": {"experiment": "Body weight (minus tumor weight) of Colon 26 bearing mice", "format": "in vivo, mouse", "details": "Experimental Example 5; 150 mg/Kg 5-FU, 100 μg/Kg hEGF subcutaneous", "experimental": "That is, in Experimental Example 1, with the value of the body weight of the experimental animal immediately before administration of the drug from which the tumor weight is detracted as being 100, the ratio of the value of the total body weight of the experimental animal from which the tumor weight is detracted on the respective days after administration of the drug relative to this weight was calculated to obtain the results shown in FIG. 4. The symbols in the Figure are the same as in Experimental Example 1."}},
  "data": [
    {"compound": "O=c1[nH]cc(F)c(=O)[nH]1", "note": "[5-FU, 5-fluorouracil]", "values": [
      {"measurement": "Tumor weight (day 1 = 100)", "setting": "[1]; day 2", "result": "121.1 ± 9.6"},
      {"measurement": "Tumor weight (day 1 = 100)", "setting": "[1]; day 3", "result": "120.4 ± 7.1"},
      {"measurement": "Tumor weight (day 1 = 100)", "setting": "[1]; day 4", "result": "124.0 ± 9.6"},
      {"measurement": "Tumor weight (day 1 = 100)", "setting": "[1]; day 5", "result": "122.5 ± 10.7"},
      {"measurement": "Tumor weight (day 1 = 100)", "setting": "[1]; day 6", "result": "129.7 ± 11.5"},
      {"measurement": "Tumor weight (day 1 = 100)", "setting": "[1]; day 7", "result": "156.8 ± 14.1"},
      {"measurement": "Tumor weight (day 1 = 100)", "setting": "[2]; Table 1, day 2, hEGF 100 μg/Kg subcutaneous on day 1, average ± standard error", "result": "106.3 ± 31.8"},
      {"measurement": "Tumor weight (day 1 = 100)", "setting": "[2]; Table 1, day 4, hEGF 100 μg/Kg subcutaneous on day 1, average ± standard error", "result": "84.5 ± 7.0"},
      {"measurement": "Tumor weight (day 1 = 100)", "setting": "[2]; Table 1, day 5, hEGF 100 μg/Kg subcutaneous on day 1, average ± standard error", "result": "75.4 ± 10.3"},
      {"measurement": "Tumor weight (day 1 = 100)", "setting": "[2]; Table 1, day 6, hEGF 100 μg/Kg subcutaneous on day 1, average ± standard error", "result": "86.2 ± 9.5"},
      {"measurement": "Tumor weight (day 1 = 100)", "setting": "[2]; Table 1, day 7, hEGF 100 μg/Kg subcutaneous on day 1, average ± standard error", "result": "121.1 ± 13.0"},
      {"measurement": "Tumor weight (day 1 = 100)", "setting": "[2]; Table 1, day 8, hEGF 100 μg/Kg subcutaneous on day 1, average ± standard error", "result": "147.3 ± 16.0"},
      {"measurement": "Tumor weight (day 1 = 100)", "setting": "[2]; Table 1, day 9, hEGF 100 μg/Kg subcutaneous on day 1, average ± standard error", "result": "210.9 ± 22.9"},
      {"measurement": "Tumor weight (day 1 = 100)", "setting": "[2]; Table 11, day 2, FGF 100 μm/10 ml/Kg subcutaneous, average ± standard error of 6-8 mice", "result": "102.6 ± 6.7"},
      {"measurement": "Tumor weight (day 1 = 100)", "setting": "[2]; Table 11, day 3, FGF 100 μm/10 ml/Kg subcutaneous, average ± standard error of 6-8 mice", "result": "99.7 ± 7.2"},
      {"measurement": "Tumor weight (day 1 = 100)", "setting": "[2]; Table 11, day 4, FGF 100 μm/10 ml/Kg subcutaneous, average ± standard error of 6-8 mice", "result": "94.9 ± 8.7"},
      {"measurement": "Tumor weight (day 1 = 100)", "setting": "[2]; Table 11, day 5, FGF 100 μm/10 ml/Kg subcutaneous, average ± standard error of 6-8 mice", "result": "158.6 ± 22.8"},
      {"measurement": "Tumor weight ratio(%)", "setting": "[2]; Table 12, day 4 after compound administration, weight before administration = 100, Tegafur 400, 5-FU 150, Mitomycin-C 5, Cisplatin 5 mg/Kg, hIGF-II 50 μg/Kg subcutaneous, average ± standard error of 8-10 mice", "result": "84.5 ± 7.0", "unit": "%"},
      {"measurement": "Tumor weight ratio(%)", "setting": "[2]; Table 14, hTGFα 100 μg/10 ml/Kg with 5-FU, Tegafur, Mitomycin-C, Adriamycin or Cisplatin, as described for Table 12", "result": "84.6 ± 7.0", "unit": "%"},
      {"measurement": "Tumor weight ratio(%)", "setting": "[2]; Table 15, day 4 after compound administration, hTGFβ and hEGF 100 μg/Kg with each compound having antitumor action", "result": "103.3 ± 15.4", "unit": "%"},
      {"measurement": "Tumor weight % (average value ± standard error)", "setting": "[2]; Table 20, 4 days after administration of 5-FU, 5-FU single subcutaneous", "result": "93.9 ± 6.7", "unit": "%"},
      {"measurement": "Tumor weight (day 1 = 100)", "setting": "[3]; Table 2, day 2, hEGF 100 μg/Kg subcutaneous on day 1 and day 3, average ± standard error of 9 mice", "result": "126.2 ± 5.5"},
      {"measurement": "Tumor weight (day 1 = 100)", "setting": "[3]; Table 2, day 3, hEGF 100 μg/Kg subcutaneous on day 1 and day 3, average ± standard error of 9 mice", "result": "232.7 ± 15.9"},
      {"measurement": "Tumor weight (day 1 = 100)", "setting": "[3]; Table 2, day 4, hEGF 100 μg/Kg subcutaneous on day 1 and day 3, average ± standard error of 9 mice", "result": "280.0 ± 31.7"},
      {"measurement": "Tumor weight (day 1 = 100)", "setting": "[3]; Table 3, day 2, [Leu^21 ]-hEGF or hEGF-II 100 μg/Kg subcutaneous on day 1 and day 3, average ± standard error", "result": "121.2 ± 10.5"},
      {"measurement": "Tumor weight (day 1 = 100)", "setting": "[3]; Table 3, day 3, [Leu^21 ]-hEGF or hEGF-II 100 μg/Kg subcutaneous on day 1 and day 3, average ± standard error", "result": "232.7 ± 15.9"},
      {"measurement": "Tumor weight (day 1 = 100)", "setting": "[3]; Table 3, day 4, [Leu^21 ]-hEGF or hEGF-II 100 μg/Kg subcutaneous on day 1 and day 3, average ± standard error", "result": "280.0 ± 31.7"},
      {"measurement": "Tumor weight (day 1 = 100)", "setting": "[4]; day 2", "result": "114.7 ± 7.5"},
      {"measurement": "Tumor weight (day 1 = 100)", "setting": "[4]; day 3", "result": "115.2 ± 8.3"},
      {"measurement": "Tumor weight (day 1 = 100)", "setting": "[4]; day 4", "result": "134.6 ± 8.9"},
      {"measurement": "Tumor weight (day 1 = 100)", "setting": "[4]; day 5", "result": "187.3 ± 19.3"},
      {"measurement": "Tumor weight (day 1 = 100)", "setting": "[4]; day 6", "result": "230.1 ± 29.4"},
      {"measurement": "body weight reduction inhibiting effect (body weight minus tumor weight, FIG. 4)", "setting": "[5]", "result": "no inhibiting effect of weight reduction could be recognized"}
    ]}
  ]
}
